Experimental data: patent US6696484B2, “Method and compositions for regulation of 5-alpha reductase activity” (University of Chicago Office of Technology and Intellectual …, priority 1997, dated 2004)
Several values for one entry are separate records, joined by “and”; a condition that tells them apart may be missing. Equal values may be shown once. Read-outs that look alike come from different tables or passages of the source.

Assays:
[1] = system: MCF-7 tumors; assay: Growth of MCF-7 tumors in female nude mice; assay type: in vivo, BALB/c athymic (nude) mice
[2] = system: LNCaP 104-R2 tumors; assay: Growth of LNCaP 104-R2 tumors in castrated male nude mice; assay type: in vivo, BALB/c athymic (nude) mice; settings: finasteride (2.5 mg) pellets at 7th week in mice with TP since 4th week, from 84±15 (SE) mm^3
[3] = target: T1, 5α-reductase type 2 isozyme (Homo sapiens, UniProt P31213); settings: cited from earlier work
T1 sequence (P31213 1-254): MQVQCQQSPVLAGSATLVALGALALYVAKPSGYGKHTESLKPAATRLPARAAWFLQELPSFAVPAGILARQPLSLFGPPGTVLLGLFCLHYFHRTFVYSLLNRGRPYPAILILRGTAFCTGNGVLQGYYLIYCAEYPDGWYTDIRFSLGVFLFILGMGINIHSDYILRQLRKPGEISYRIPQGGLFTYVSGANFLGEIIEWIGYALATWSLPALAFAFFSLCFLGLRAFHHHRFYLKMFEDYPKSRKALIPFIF

[4] = system: LNCaP 104-S tumors; assay: Growth of LNCaP 104-S tumors in nude mice; assay type: in vivo, BALB/c athymic (nude) mice; settings: finasteride treatment, normal nude mice, within 4 weeks
[5] = system: hamster flank organ; assay: Testosterone-stimulated growth of the pigmented macules of hamster flank organs; assay type: in vivo, Syrian golden hamsters; settings: for Inhibition (percent decrease in macule area vs androgen-treated macules) / Pigmented macule area / Pigmented macule area, androgen alone (control): 18 days; for Pigmented macule area / Pigmented macule area, androgen alone (control): mean±SEM; for Pigmented macule area, androgen alone (control): 0.5 μg testosterone alone topically daily;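 as to all read-outs here: prepubertal Syrian golden hamsters castrated at 4 weeks, ethanol vehicle on one flank organ, macule long and short axes gauged by caliper 1 day after final dose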
[6] = system: hamster flank organ; assay: DHT-stimulated growth of the pigmented macules of hamster flank organs; assay type: in vivo, Syrian golden hamsters; settings: 0.5 μg DHT + 1 mg compound topically daily, 18 days; for Pigmented macule area: mean±SEM
Description: Prepubertal male Syrian golden hamsters, castrated at 4 weeks of age, were obtained from Harlan Sprague-Dawley Co. (Madison, Wis.). Bilateral orchiectomy was performed under anesthesia. The hamsters were housed individually in plastic cages and had free access to Purina rodent chow and water, and were maintained on a 12-h light/12-h dark cycle. Hamsters were used 1-2 weeks after castration and were divided into groups of 4-6 or 9-11 animals. Hair on the lower back of each animal was shaved weekly with an electric hair clipper to expose the flank organs. A treatment solution (5 μl with ethanol as vehicle) was applied topically to the flank organ once a day using a Pipetteman and a polypropylene disposable tip. The treatment solution contained either (a) ethanol alone, (b) an androgen (testosterone or DHT), (c) a test compound, or (d) a combination of an androgen and a test compound. For each hamster, one flank organ was treated while the other organ was not treated. The surface of the flank organ was wiped with an alcohol pad to remove residual compound before each treatment. At the end of each experiment (18 days), animals were killed by CO2 asphyxiation or an intraperitoneal injection of […]. Flank organs from both the treated and untreated sides were examined 1 day after the last treatment by the methods described below. The body weight of each animal was recorded before and after treatment. Experiments were repeated at least twice to assure reproducibility. The “Guide for the care and use of laboratory animals” (NIH publication no. 85-28, revised 1988) and the regulations of the U.S. Department of Agriculture were followed throughout the experiments.
In this study, the growth of the flank organ was determined by measuring the length of the long axis and the short axis of the pigmented spot (pigmented macule) with a caliper with a digital display (Digimatic; Mitutoyo Corporation, Japan). The surface area (in millimeters squared) of the spot was calculated as the product of the long axis and the short axis (Gomez and Frost 1975). The areas of the pigmented spots after treatment with ethanol alone or with test compound (in ethanol) alone were less than 10% of the areas of the pigmented spots after treatment with testosterone alone. These values were deducted from the experimental values and are compared in Tables 8-10. For each experiment, the means and standard error of the means (SEM) of the areas of the untreated and treated macules were computed separately for each treatment group. Within each experiment, an overall F-test (one way ANOVA) was used to test the null hypothesis that the mean sizes of the treated macules were the same in all groups, and Dunnett's multiple range test was used to examine differences between the treatment groups (i.e., green tea catechin+androgen, fatty acid+androgen, EGC derivative+androgen, or fatty acid derivative+androgen) and the control group (androgen treatment only). The Mann-Whitney test was used to examine differences between DHT-treated and the DHT and EGCG-treated groups. P-values <0.05 were taken as indicating statistical significance in all tests (Hochberg and Tamhane 1987).
Each group comprised four to six castrated male hamsters. At the end of the treatment period, the areas of the pigmented macules were determined and are presented as means±SEM in Table 8.
Each group comprised four to six castrated male hamsters. At the end of the treatment period, the areas of the pigmented macules were determined and are expressed as means±SEM as shown in Table 10.

[7] = Stability (half-life, oxidation or hydrolysis) in culture medium, buffers and solutions; assay type: physicochemical
Description: These green tea catechins had little inhibitory activity against 5α-reductase in whole cells. The lack of activity in whole cells may be due to an inability of these catechins to cross the cell membrane or to enzymatic or non-enzymatic changes in the structure of these catechins in assays using whole-cell cultures.
Active 5α-reductase inhibitors shown in Tables 1-7 are polyphenols or their derivatives and are easily oxidized or hydrolyzed within several hours to several days, especially in the presence of air or oxygen and at a pH above 7.0. […] More than 80% of the oxidation of hydrolysis can be prevented by the addition of an inorganic acid, such as hydrochloric acid, sulfuric acid, or phosphoric acid, or an organic acid, such as citric acid or acetic acid.

[8] = target: 5α-reductase; settings: Liao and Hiipakka 1995; read-out: IC50, 5α-reductase, in vitro enzyme assay; cited from earlier work
[9] = target: T2, type 1 human 5α-reductase (Homo sapiens, UniProt P18405); assay: Cell-free enzymatic assay of 5α-reductase (testosterone to DHT), type 1
T2 sequence (P18405 1-259): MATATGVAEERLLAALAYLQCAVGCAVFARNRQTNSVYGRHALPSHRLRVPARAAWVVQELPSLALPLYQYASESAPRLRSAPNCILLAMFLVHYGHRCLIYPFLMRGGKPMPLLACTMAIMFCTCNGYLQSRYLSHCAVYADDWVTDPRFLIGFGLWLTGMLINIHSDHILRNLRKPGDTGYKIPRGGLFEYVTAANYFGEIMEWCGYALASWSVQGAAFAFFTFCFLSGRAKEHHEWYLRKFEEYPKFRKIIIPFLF

[10] = system: LNCaP 104-S cells; assay: Proliferation of LNCaP 104-S cells in culture; assay type: cell-based, human; settings: 0.1 nM R1881 vs androgen-depleted media
Description: Androgen-dependent LNCaP 104-S (passage 37) and androgen-independent LNCaP 104-R±sublines were isolated as described previously (Kokontis et al., 1994). The characteristics of these cells in vitro were confirmed before injection into nude mice. […] LNCaP 104-R2 cells grew in charcoal-treated media without additional androgen. Their proliferation was not stimulated but was repressed by 0.1 nM R1881. LNCaP 104-S cells were maintained in DMEM (Gibco) supplemented with 1 nM 5α-DHT and 10% FBS (Summit Biotechnology) and LNCaP 104-R2 cells were maintained in DMEM supplemented with 10% FBS treated with charcoal to remove steroid (Kokontis et al., 1994). PC-3 and MCF-7 cell lines were obtained from the American Type Culture Collection (Rockville, Md.), and were maintained in DMEM supplemented with 10% FBS.

[11] = target: T3, 5α-reductase type 1 isozyme (Homo sapiens, UniProt P18405); settings: read-out: Km for testosterone, type 1 isozyme; background statement; cited from earlier work
T3 sequence (P18405 1-259): T2 sequence (P18405 1-259)

[12] = target: 5α-reductase; assay: In vitro enzyme assay of 5α-reductase referred to in the discussion; assay type: biochemical; settings: Hiipakka and Liao, unpublished results
[13] = 0.5 μg testosterone + 1 mg compound topically daily
[14] = 0.5 μg testosterone + 1 mg compound topically daily, castrated male hamsters
[15] = 0.5 μg testosterone + 2 mg compound topically daily
[16] = cell-free assay, double-reciprocal plots

CC(C)(C)NC(=O)[C@H]1CC[C@H]2[C@@H]3CC[C@H]4NC(=O)C=C[C@]4(C)[C@H]3CC[C@]12C [Finasteride]
effect on growth of MCF-7 tumors [1]: did not affect | LNCaP 104-R2 tumor size within 4 weeks after finasteride implantation [2]: 593±144 mm^3 | affinity for isozyme 2 relative to isozyme 1 ([3]; competitive inhibitor, Russell and Wilson, 1994): 30 fold | reduction of LNCaP 104-S tumor size [4]: 45%

O=C(O[C@@H]1Cc2c(O)cc(O)cc2O[C@@H]1c1cc(O)c(O)c(O)c1)c1cc(O)c(O)c(O)c1 [EGCG, epigallocatechin gallate]
Inhibition (percent decrease in macule area vs androgen-treated macules) [5, 13]: 40% and 64% | Pigmented macule area [5, 14]: 8.25 ± 1.43 mm^2 and 6.25 ± 0.82 mm^2 | Inhibition (percent decrease in macule area vs androgen-treated macules) [5, 15]: 60% | Pigmented macule area [5, 15]: 5.62 ± 0.75 mm^2 | Inhibition (percent decrease in macule area vs androgen-treated macules) [6]: 97% | Pigmented macule area [6]: 0.50 ± 0.26 mm^2 | half-life in culture medium ([7]; culture medium used for whole-cell assays (pH 7.5), mean±SEM, N=3): 9.5 ± 0.5 min | difference in stability, phosphate buffer vs culture medium ([7]; pH 7.0 vs pH 7.5): 8 fold | half-life in phosphate buffered saline ([7]; pH 7.5): 21.2 ± 2.0 min | half-life in phosphate buffer ([7]; phosphate buffer used for cell-free assays (pH 7.0), mean±SEM, N=3): 74.7 ± 6.4 min | IC50 [8]: 10 to 20 µM | reversibility of inhibition after pelleting and resuspending microsomes ([9]; 100 μM EGCG): could not be reversed | mode of inhibition with respect to the substrate NADPH [9, 16]: competitive inhibitor | mode of inhibition with respect to the substrate testosterone [9, 16]: non-competitive inhibitor

C[C@]1(O)CC[C@H]2[C@@H]3CCC4=CC(=O)CCC4=C3C=C[C@@]21C [R1881, 17 β-hydroxy-17 α-methyl-estra-4,9,11-trien-3-one]
increase of proliferation of LNCaP 104-S cells [10]: 10-13 fold

C[C@]12CC[C@H]3[C@@H](CCC4=CC(=O)CC[C@@]43C)[C@@H]1CC[C@@H]2O [T, testosterone, reference compound]
Pigmented macule area, androgen alone (control) [5]: 13.83 ± 1.43 mm^2 and 17.40 ± 1.93 mm^2 and 18.65 ± 0.69 mm^2 | Pigmented macule area, androgen alone (control) ([5]; listed as testosterone): 15-20 mm^2 | stimulation of flank organ growth relative to the maximum stimulation ([5]; 0.5 μg testosterone per flank organ per day): 50-70% | Km [11]: > 1000 nM | Km ([3]; read-out: Km for testosterone, type 2 isozyme, background statement): < 10 nM

O=C1c2ccccc2C(=O)c2c1ccc(O)c2O [Alizarin]
Inhibition (percent decrease in macule area vs androgen-treated macules) [5, 13]: 87% | Pigmented macule area [5, 14]: 2.40 ± 0.47 mm^2 | IC50 [12]: 5 to 10 µM | Inhibition (percent decrease in macule area vs androgen-treated macules) [6]: 27% | Pigmented macule area [6]: 10.00 ± 0.43 mm^2
